In US20220030866A1, “CONJUGATES OF AUXIN ANALOGS” (The State of Israel, Ministry of Agriculture & Rural …, priority 2019, published 2022):

Tests used:
Assay type in all cases: in vivo
[1] = test system: cuttings from mature Eucalyptus grandis trees; test: rooting of cuttings from mature Eucalyptus grandis trees; conditions: for appearance of the roots compared with IBA alone: 6000 ppm IBA with 100 μM compound
Procedure, shortened: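 Cuttings (12-15 cm, two upper leaves halved) from branches of 8-year-old net-house plants; bases dipped 1 min in 6000 ppm IBA potassium salt plus 50 μM conjugate, leaves sprayed with 50 μM conjugate in 0.5% Triton X-100. Rooted at 25° C, 90% humidity, peat:vermiculite:polystyrene 1:2:3; rooting scored after 30-60 days.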

[2] = test system: argan (Argania spinosa) cuttings; test: rooting of argan cuttings; conditions: 100 μM conjugate with 6000 ppm IBA
Procedure: The ability of exemplary conjugates to promote rooting in plants which are recalcitrant to rooting (in addition to the results obtained with Eucalyptus grandis in Example 3) was examined using cuttings of argan (Argania spinosa) and jojoba (Simmondsia chinensis) in a commercial nursery (Shorashim). The argan and jojoba cuttings were treated with 100 μM of a conjugate (any of Compounds 10-1t) with 6000 ppm IBA. The common treatment T-8 (talc with 8000 ppm IBA and a fungicide) or 6000 ppm IBA (without conjugate) served as a control.
Exemplary conjugates were also tested for rooting the hard-to-root species of avocado (VC801 rootstock) and argan, according to procedures described hereinabove.

[3] = test system: Eucalyptus brachyphylla cuttings; test: rooting of Eucalyptus brachyphylla cuttings; conditions: for mean root number per cutting, E. brachyphylla: K-IBA alone or with 100 μM compound; for mean root length, E. brachyphylla, relative to IBA alone, in words: K-IBA with 100 μM compound
Procedure: In order to investigate cloning of productive eucalyptus trees from cuttings, branches were excised from mature Eucalyptus x trabutii and Eucalyptus brachyphylla trees the field (in Kfar Pines, Israel)—selected based on their exceptional nectar production and honeybee attraction—placed in a humidified cooler box and brought to a climate-controlled greenhouse within 2 hours. Each cutting, 7 cm long, included three nodes with only two leaves remaining at its apical end. Two-thirds of each blade was excised to minimize evapotranspiration. The cutting bases were submerged for 1 minute in 6 grams/liter indole-3-butyric acid potassium salt (K-IBA), optionally supplemented with Compound 1s or 1t at a concentration of 100 μM. In addition, the leaves were sprayed with 100 μM of each compound in the presence of 0.05% Triton X-100 surfactant. Stock solutions of Compounds 1s and 1t were at a concentration of 100 mM in DMSO. The cuttings were planted in rooting medium containing peat, vermiculite and polystyrene flakes at a ratio of 1:2:3 respectively, on a heated rooting table under 90% humidity. Fungicides were applied to the rooting media on a weekly basis. Rooting percentage, number of roots per cutting and root length were measured after 1 and 2 weeks and after 1 and 2 months.

[4] = IBA with 100 μM compound, submersion and spraying

| SMILES | percentage of adventitious root formation (rooting) ([1]; 6000 ppm IBA and 100 μM conjugate by submersion of base plus spraying of foliage) | appearance of the roots compared with IBA alone ([1]; submersion and spraying) | number of root tips compared with IBA alone (WinRHIZO) [1, 4] | total root length compared with IBA alone (WinRHIZO) [1, 4] | rooting percentage in argan compared with IBA alone, in words [2] | mean root number per cutting, E. brachyphylla [3] | mean root length, E. brachyphylla, relative to IBA alone, in words [3] |
| --- | --- | --- | --- | --- | --- | --- | --- |
| COC(=O)[C@H](Cc1c[nH]c2ccccc12)NC(=O)COc1ccc(Cl)cc1 [Compound 1t, 4-CPA-L-Trp] | 51±7% | appeared more branched | considerably enhanced the number of root tips | considerably enhanced the total root length | considerably higher rooting percentages | about 2 | enhanced mean root length |
| COC(=O)[C@@H](Cc1c[nH]c2ccccc12)NC(=O)COc1ccc(Cl)cc1 [Compound 1s, 4-CPA-D-Trp] |  | appeared more branched |  |  | considerably higher rooting percentages | about 2 | enhanced mean root length |
